According to paper PMC11876601 (Molecular Systems Biology, 2025):
Like-named read-outs stand apart in the source and are kept apart here.

Tested on: p-sites in DNA-damaged AsPC-1 cells
Test: decryptM dose-resolved phosphoproteomics of ATRi in GEM-pre-treated cells
Format: cell-based, human
Conditions: for EC50: Homo sapiens; for ATRi Regulation (Curve), RALY S176: classified by CurveCurator
Experimental: Cell culture medium was replaced 24 h after seeding. […] For time point 0, AsPC-1 cells were treated with a vehicle and lysed immediately. The final DMSO concentration in all experiments was 0.2%.
Briefly, cells were washed twice with PBS and lysed in SDS lysis buffer (2% SDS in 40 mM Tris-HCl, pH 7.6), followed by sonication for 10 min (30 s on/30 s off) using a Bioruptor (Diagenode). For DNA hydrolysis, samples were boiled at 95 °C for 10 min and incubated with 2% trifluoroacetic acid (TFA) for 1 min, before the reaction was quenched using 4% N-methylmorpholine. Lysate was cleared by centrifugation at 11,000 × g for 5 min and protein concentration was determined using the Pierce BCA Protein Assay Kit (Thermo Scientific).
Using 70% ethanol, samples were then precipitated on beads, followed by washing thrice with 80% ethanol and once with 100% acetonitrile. Subsequently, proteins were reduced and alkylated using 10 mM TCEP, 50 mM chloroacetamide, and 2 mM CaCl2 in 100 mM EPPS/NaOH, pH 8.5 for 1 h at 37 °C, followed by tryptic digestion at 37 °C for 16 h. Peptides were acidified with 1% TFA and desalted on Chromabond HLB plates (30 µm particle size, 10 mg capacity, Machery-Nagel), using 0.1% TFA for equilibration and sample loading, and 0.1% TFA in 70% acetonitrile for peptide elution. Recovered peptides were freeze-dried by vacuum-centrifugation and stored at −20 °C.
Depending on the experiment, samples were either labeled with TMT-11plex (decryptM), TMT-10plex (non-decryptM, quadruplicates), or TMTpro reagent (time-series; all Thermo Scientific). Therefore, dried peptides were reconstituted in 15 µl 100 mM EPPS, pH 8.5 and each treatment condition was labeled with one channel of the respective TMT reagent (5 µl of 25 µg/µl reagent, Appendix Tables S4–S6). The reaction was incubated for 1 h at 23 °C and subsequently quenched with 0.4% hydroxylamine. Then, samples were pooled, acidified with 1% formic acid, and freeze-dried by vacuum-centrifugation. Labeled peptide pools were desalted on C18 Sep-Pak cartridges (37–55 µm particle size, 50 mg capacity, Waters), using 0.1% formic acid as equilibration solvent, and 0.1% formic acid in 60% acetonitrile was used as elution solvent. Eluted peptides were freeze-dried and stored at −20 °C until further use.
Basic reversed-phase (bRP) fractionation of peptides was performed on a Vanquish HPLC (Thermo Scientific). In short, dried peptides were reconstituted in 200 µl 25 mM ammonium bicarbonate, pH 8.0 and directly injected onto a Waters BEH130 XBridge C18 column (3.5 µm, 4.6 × 250 mm). […] Using an automated fraction collector, 96 fractions were collected between min 7 and 55 after injection. Fractions were acidified with 1% formic acid and pooled to 48 fractions, before they were freeze-dried and stored at −20 °C.
Immobilized metal ion affinity chromatography (IMAC) enrichment of phosphorylated peptides was performed on the Bravo automated liquid handling platform using AssayMAP Fe(III)-NTA cartridges (Agilent). In brief, the 48 dried peptide fractions were reconstituted in 0.1% TFA in 80% acetonitrile and further pooled to 12 fractions (200 µl final volume per well). The phosphopeptide enrichment protocol embedded in the Agilent AssayMAP Bravo Protein Sample Prep Workbench v2.0 software was run. Thereby, the cartridges were first primed with 150 μl 0.1% TFA in acetonitrile at 300 μl/min, and equilibrated with 150 μl 0.1% TFA in 80% acetonitrile at 10 μl/min. Then, pooled fractions were loaded at 5 µl/min and further washed three times with 150 μl 0.1% TFA in 80% acetonitrile at 50 μl/min. Enriched peptides were eluted with 60 μl 1% ammonium hydroxide at 5 μl/min.

[1] = source data 4B (p-site not named), 1 µM GEM + ATRi 300 nM
[2] = source data 4B (p-site not named), 1 µM GEM + ATRi 1000 nM
[3] = source data 4B (p-site not named), 1 µM GEM + ATRi 3000 nM
[4] = source data 4B (p-site not named), 1 µM GEM + ATRi 10000 nM
[5] = source data 5B (p-site not named), 1 µM GEM + ATRi 3 nM
[6] = source data 5B (p-site not named), 1 µM GEM + ATRi 30 nM

SMILES: C[C@@H]1COCCN1c1cc(-c2ccnn2C)c2ccnc(-c3ccn[nH]3)c2n1 [Elimusertib]
- Log2 PTM response (GEM+ATRi vs. GEM): -0.6
- Log2 PTM response (GEM+ATRi vs. GEM) (BRCA1-pS1239): -1.6
- Log2 PTM response (GEM+ATRi vs. GEM) (BRD8-pS621): -1.4
- Log2 PTM response (GEM+ATRi vs. GEM) (CDKN2AIP-pS198): -1.1
- Log2 PTM response (GEM+ATRi vs. GEM) (CHEK1-pS317): -1.9
- Log2 PTM response (GEM+ATRi vs. GEM) (CHEK1-pS468): -3
- Log2 PTM response (GEM+ATRi vs. GEM) (DHX9-pS321): -1.6
- Log2 PTM response (GEM+ATRi vs. GEM) (EXO1-pS714): -1
- Log2 PTM response (GEM+ATRi vs. GEM) (FANCD2-pS319): -1.9
- Log2 PTM response (GEM+ATRi vs. GEM) (HDGF-pS103): -1.1
- Log2 PTM response (GEM+ATRi vs. GEM) (HMGA1-pS9): -1.4
- Log2 PTM response (GEM+ATRi vs. GEM) (HMGA1-pS36;S44): -1
- Log2 PTM response (GEM+ATRi vs. GEM) (HMGA1-pS44): -1.5
- Log2 PTM response (GEM+ATRi vs. GEM) (HSPA4-pS552): -0.7
- Log2 PTM response (GEM+ATRi vs. GEM) (HTATSF1-pS481): -0.8
- EC50 (ASPC1, read-out: EC50, RALY S176): 12.8 nM
- Log2 PTM response (GEM+ATRi vs. GEM) (LRRC42-pS385): -2.3
- Log2 PTM response (GEM+ATRi vs. GEM) (NBN-pS397): -0.9
- Log2 PTM response (GEM+ATRi vs. GEM) (NBN-pS615): -0.8
- Log2 PTM response (GEM+ATRi vs. GEM) (PELP1-pS1033): -1
- Log2 PTM response (GEM+ATRi vs. GEM) (PNISR-pS706): -1.9
- Log2 PTM response (GEM+ATRi vs. GEM) (PPP6R3-pS825): -0.5
- Log2 PTM response (GEM+ATRi vs. GEM) (PSMD4-pS266): -0.9
- Log2 PTM response (GEM+ATRi vs. GEM) (RAD18-pS368): -2.1
- Log2 PTM response (GEM+ATRi vs. GEM) (RIF1-pS1873): -0.6
- Log2 PTM response (GEM+ATRi vs. GEM) (SNRPA-pS115): -1.1
- Log2 PTM response (GEM+ATRi vs. GEM) (TCEA1-pS100;S97): -2
- Log2 PTM response (GEM+ATRi vs. GEM) (TCEB3-pS251): -0.7
- Log2 PTM response (GEM+ATRi vs. GEM) (THAP4-pS186): -1.1
- Log2 PTM response (GEM+ATRi vs. GEM) (TOPBP1-pS1504): -1.2
- Log2 PTM response (GEM+ATRi vs. GEM) (TSEN34-pS136): -0.8
- Log2 PTM response (GEM+ATRi vs. GEM) (UHRF1-pS393): -0.7
- Log2 PTM response (GEM+ATRi vs. GEM) (UIMC1-pS171): -1.7
- Log2 PTM response (GEM+ATRi vs. GEM) (ZC3H14-pS135): -1.6
- ATRi Regulation (Curve), RALY S176: down
- PTM response (norm. to 1 µM GEM) (source data 4B (p-site not named), 1 µM GEM + ATRi 10 nM): 0.81
- PTM response (norm. to 1 µM GEM) [1]: 0.28
- PTM response (norm. to 1 µM GEM) [2]: 0.29
- PTM response (norm. to 1 µM GEM) [3]: 0.30
- PTM response (norm. to 1 µM GEM) [4]: 0.27
- PTM response (norm. to 1 µM GEM) [5]: 0.67
- PTM response (norm. to 1 µM GEM) [6]: 0.17

SMILES: C[C@@H]1COCCN1c1cc(C2([S@](C)(=N)=O)CC2)nc(-c2cc[nH]c3nccc2-3)n1 [Ceralasertib]
- Log2 PTM response (GEM+ATRi vs. GEM) (AASDHPPT-pS258): -0.9
- Log2 PTM response (GEM+ATRi vs. GEM) (BRCA1-pS1239): -1.1
- Log2 PTM response (GEM+ATRi vs. GEM) (BRD8-pS621): -1.7
- Log2 PTM response (GEM+ATRi vs. GEM) (CDKN2AIP-pS198): -1.6
- Log2 PTM response (GEM+ATRi vs. GEM) (CHEK1-pS317): -2
- Log2 PTM response (GEM+ATRi vs. GEM) (CHEK1-pS468): -3.8
- Log2 PTM response (GEM+ATRi vs. GEM) (DHX9-pS321): -1.6
- Log2 PTM response (GEM+ATRi vs. GEM) (EXO1-pS714): -0.7
- Log2 PTM response (GEM+ATRi vs. GEM) (FANCD2-pS319): -1.3
- Log2 PTM response (GEM+ATRi vs. GEM) (HDGF-pS103): -1.4
- Log2 PTM response (GEM+ATRi vs. GEM) (HMGA1-pS9): -2
- Log2 PTM response (GEM+ATRi vs. GEM) (HMGA1-pS36;S44): -1.5
- Log2 PTM response (GEM+ATRi vs. GEM) (HMGA1-pS44): -1.7
- Log2 PTM response (GEM+ATRi vs. GEM) (HSPA4-pS552): -1.1
- Log2 PTM response (GEM+ATRi vs. GEM) (HTATSF1-pS481): -0.6
- EC50 (ASPC1, approximate, from density plot Fig. 4C (peer review file), read-out: EC50 of the majority of pSQ/pTQ sites): ~100 nM
- EC50 (ASPC1, approximate, from density plot Fig. 4C (peer review file), read-out: pEC50 of the majority of pSQ/pTQ sites (converted)): ~100 nM
- EC50 (ASPC1, p-site dose-response in GEM-pre-treated cells, read-out: EC50, RALY S176): 151 nM
- EC50 (ASPC1, p-site dose-response in GEM-pre-treated cells, read-out: pEC50, RALY S176 (converted)): 151 nM
- EC50 (ASPC1, read-out: median EC50 across all drug-regulated pSQ/pTQ-sites): 154 nM
- Log2 PTM response (GEM+ATRi vs. GEM) (LRRC42-pS385): -2.5
- Log2 PTM response (GEM+ATRi vs. GEM) (NBN-pS397): -1.2
- Log2 PTM response (GEM+ATRi vs. GEM) (NBN-pS615): -0.5
- Log2 PTM response (GEM+ATRi vs. GEM) (NSUN5-pS432): -3
- Log2 PTM response (GEM+ATRi vs. GEM) (PELP1-pS1033): -1.3
- Log2 PTM response (GEM+ATRi vs. GEM) (PHF14-pS294): -1.2
- Log2 PTM response (GEM+ATRi vs. GEM) (PPM1G-pS201): -1.9
- Log2 PTM response (GEM+ATRi vs. GEM) (PPP6R3-pS825): -1.6
- Log2 PTM response (GEM+ATRi vs. GEM) (PSMD4-pS266): -1.3
- Log2 PTM response (GEM+ATRi vs. GEM) (RAD18-pS368): -1.2
- Log2 PTM response (GEM+ATRi vs. GEM) (RIF1-pS1873): -0.6
- Log2 PTM response (GEM+ATRi vs. GEM) (SNRPA-pS115): -1.4
- Log2 PTM response (GEM+ATRi vs. GEM) (TCEA1-pS100;S97): -2.1
- Log2 PTM response (GEM+ATRi vs. GEM) (TCEB3-pS251): -1.6
- Log2 PTM response (GEM+ATRi vs. GEM) (THAP4-pS186): -1.4
- Log2 PTM response (GEM+ATRi vs. GEM) (TOPBP1-pS1504): -1.5
- Log2 PTM response (GEM+ATRi vs. GEM) (TSEN34-pS136): -1.1
- Log2 PTM response (GEM+ATRi vs. GEM) (UHRF1-pS393): -1.4
- Log2 PTM response (GEM+ATRi vs. GEM) (UIMC1-pS171): -2.1
- Log2 PTM response (GEM+ATRi vs. GEM) (ZC3H14-pS135): -1.3
- ATRi Regulation (Curve), RALY S176: down
- PTM response (norm. to 1 µM GEM) (source data 4B (p-site not named), 1 µM GEM + ATRi 1 nM): 1.20
- PTM response (norm. to 1 µM GEM) (source data 4B (p-site not named), 1 µM GEM + ATRi 3 nM): 0.93
- PTM response (norm. to 1 µM GEM) (source data 4B (p-site not named), 1 µM GEM + ATRi 30 nM): 0.96
- PTM response (norm. to 1 µM GEM) (source data 4B (p-site not named), 1 µM GEM + ATRi 100 nM): 0.97
- PTM response (norm. to 1 µM GEM) [1]: 0.85
- PTM response (norm. to 1 µM GEM) [2]: 0.52
- PTM response (norm. to 1 µM GEM) [3]: 0.35
- PTM response (norm. to 1 µM GEM) [4]: 0.27
- PTM response (norm. to 1 µM GEM) [5]: 0.78
- PTM response (norm. to 1 µM GEM) (source data 5B (p-site not named), 1 µM GEM + ATRi 10 nM): 0.81
- PTM response (norm. to 1 µM GEM) [6]: 0.67
- PTM response (norm. to 1 µM GEM) (source data 5B (p-site not named), 1 µM GEM + ATRi 100 nM): 0.51
- PTM response (norm. to 1 µM GEM) (source data 5B (p-site not named), 1 µM GEM + ATRi 300 nM): 0.34
- PTM response (norm. to 1 µM GEM) (source data 5B (p-site not named), 1 µM GEM + ATRi 1000 nM): 0.16
- PTM response (norm. to 1 µM GEM) (source data 5B (p-site not named), 1 µM GEM + ATRi 3000 nM): 0.11
- PTM response (norm. to 1 µM GEM) (source data 5B (p-site not named), 1 µM GEM + ATRi 10000 nM): 0.09
